In patent publication US20250302815A1, “PROTEIN TYROSINE PHOSPHATASE TARGETING LIGANDS” (CALICO LIFE SCIENCES LLC, priority 2021, published 2025):

How the values were obtained:
[1] = molecular target: T1, PTPN2 (HiBIT-PTPN2 in 293T.109 cells) (Homo sapiens, UniProt P17706); test: HiBiT Degradation 293T.109 PTPN2 (Nano-Glo HiBiT Lytic Assay); assay type: cell-based; settings: 24.0 hours
T1 construct: expressed in transfected cells; host or cells: 293T.109 (293T WT from ATCC)
T1 sequence (P17706 1-415): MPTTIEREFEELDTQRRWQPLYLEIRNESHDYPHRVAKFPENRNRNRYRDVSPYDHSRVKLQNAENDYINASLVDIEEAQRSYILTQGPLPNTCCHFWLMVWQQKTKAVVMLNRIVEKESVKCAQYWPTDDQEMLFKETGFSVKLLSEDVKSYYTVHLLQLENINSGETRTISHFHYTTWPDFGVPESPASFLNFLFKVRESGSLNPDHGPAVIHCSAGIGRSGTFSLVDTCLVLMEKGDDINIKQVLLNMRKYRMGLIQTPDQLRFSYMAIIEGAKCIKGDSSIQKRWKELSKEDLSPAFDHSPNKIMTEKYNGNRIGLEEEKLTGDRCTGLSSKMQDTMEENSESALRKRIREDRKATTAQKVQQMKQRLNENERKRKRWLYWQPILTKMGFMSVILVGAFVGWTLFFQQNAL
Description: Dulbecco's modified Eagle medium (DMEM) without phenol red and fetal bovine serum (FBS) were purchased from Gibco (Grand Island, NY, USA). Nano-Glo® HiBIT Lytic Assay System was purchased from Promega (Madison, WI, USA). 293T.109 (HiBIT-PTPN2) cell line was generated by ectopically expressing PTPN2 with N-terminal HiBIT fusion tag in 293T WT cell line purchased from ATCC (Manassas, VA, USA). Cell culture flasks and 384-well microplates were acquired from VWR (Radnor, PA, USA).
PTPN2 degradation was determined based on quantification of luminescent signal using Nano-Glo® HiBIT Lytic Assay kit. Test compounds were added to the 384-well plate from a top concentration of 10 μM with 11 points, half log titration in duplicates. 293T.109 cells were added into 384-well plates at a cell density of 5000 cells per well. The plates were kept at 37° C. with 5% CO2 for 24 hours. The cells treated in the absence of the test compound were the negative control and the cells without Nano-Glo® HiBIT Lytic reagent were the positive control. After 24-hour incubation, Nano-Glo® HiBiT Lytic Assay reagents were added to the cells. Luminescence was acquired on EnVision™ Multilabel Reader (PerkinElmer, Santa Clara, CA, USA).

PTPN2 (B16F10.4 cells) = molecular target: T2, PTPN2 (B16F10.4 cells) (Mus musculus, UniProt Q06180); test: HiBiT Degradation B16F10.4 PTPN2; assay type: cell-based; settings: 24.0 hours
T2 construct: HiBiT; host or cells: B16F10.4
T2 sequence (Q06180 1-406): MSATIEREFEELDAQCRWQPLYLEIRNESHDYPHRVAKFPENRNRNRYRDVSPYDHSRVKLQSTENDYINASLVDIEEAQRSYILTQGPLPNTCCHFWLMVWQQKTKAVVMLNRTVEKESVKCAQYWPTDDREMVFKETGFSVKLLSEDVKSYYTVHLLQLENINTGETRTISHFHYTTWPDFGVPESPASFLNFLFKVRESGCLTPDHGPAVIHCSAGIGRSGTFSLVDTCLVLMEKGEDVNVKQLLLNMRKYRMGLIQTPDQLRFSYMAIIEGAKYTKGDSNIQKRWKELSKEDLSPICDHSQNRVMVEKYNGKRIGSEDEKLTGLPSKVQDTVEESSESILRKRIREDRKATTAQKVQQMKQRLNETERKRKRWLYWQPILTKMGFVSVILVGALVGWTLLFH

Structure (SMILES)	DC50 [1] [µM]	DC50 (PTPN2 (B16F10.4 cells)) [µM]
CC1(C)C[C@@H](Nc2cccc(-c3sc(C(=O)O)c(OCC(=O)O)c3Cl)c2)CCN1S(=O)(=O)Cc1cccc(NC(=O)CCOCCn2cc(CNc3cccc4c3C(=O)N(C3CCC(=O)NC3=O)C4=O)nn2)c1 (stereo partly drawn) [Example 15, 3-(carboxymethoxy)-4-chloro-5-(3-(((4S)-1-((3-(3-(2-(4-(((2-(2,6-dioxopiperidin-3-yl)-1,3-dioxoisoindolin-4-yl)amino)methyl)-1H-1,2,3-triazol-1-yl)ethoxy)propanamido)benzyl)sulfonyl)-2,2-dimethylpiperidin-4-yl)amino)phenyl)thiophene-2-carboxylic acid]	0.2 to 1	0.2 to 1
O=C(O)COc1c(C(=O)O)sc(-c2cccc(NC3CCN(S(=O)(=O)Cc4cccc(NC(=O)C5CCN(C(=O)CNc6cccc7c6C(=O)N(C6CCC(=O)NC6=O)C7=O)CC5)c4)CC3)c2)c1Cl (stereo not shown) [Example 16]	0.2 to 1	≥ 1
CN(c1cccc(-c2sc(C(=O)O)c(OCC(=O)O)c2Cl)c1)C1CCN(S(=O)(=O)Cc2cccc(NC(=O)CCn3cc(CNc4cccc5c4C(=O)N(C4CCC(=O)NC4=O)C5=O)nn3)c2)CC1 (stereo not shown) [Example 17, 3-(carboxymethoxy)-4-chloro-5-(3-((1-((3-(3-(4-(((2-(2,6-dioxopiperidin-3-yl)-1,3-dioxoisoindolin-4-yl)amino)methyl)-1H-1,2,3-triazol-1-yl)propanamido)benzyl)sulfonyl)piperidin-4-yl)(methyl)amino)phenyl)thiophene-2-carboxylic acid]	≥ 1	≥ 1
CC1(C)C[C@@H](Nc2cccc(-c3sc(C(=O)O)c(OCC(=O)O)c3Cl)c2)CCN1S(=O)(=O)Cc1cccc(NC(=O)CCCCCCNC(=O)CNc2cccc3c2CN(C2CCC(=O)NC2=O)C3=O)c1 (stereo partly drawn) [Example 18, 3-(carboxymethoxy)-4-chloro-5-(3-(((4S)-1-((3-(7-(2-((2-(2,6-dioxopiperidin-3-yl)-1-oxoisoindolin-4-yl)amino)acetamido)heptanamido)benzyl)sulfonyl)-2,2-dimethylpiperidin-4-yl)amino)phenyl)thiophene-2-carboxylic acid]	0.2 to 1	0.2 to 1
O=C(O)COc1c(C(=O)O)sc(-c2cccc(NC3CCN(S(=O)(=O)Cc4cccc(NC(=O)CCOCCOCCOCCCc5ccc6c(c5)CN(C5CCC(=O)NC5=O)C6=O)c4)CC3)c2)c1Cl (stereo not shown) [Example 19, 3-(carboxymethoxy)-4-chloro-5-(3-((1-((3-(3-(2-(2-(3-(2-(2,6-dioxopiperidin-3-yl)-1-oxoisoindolin-5-yl)propoxy)ethoxy)ethoxy)propanamido)benzyl)sulfonyl)piperidin-4-yl)amino)phenyl)thiophene-2-carboxylic acid]	0.2 to 1	0.2 to 1
O=C(O)COc1c(C(=O)O)sc(-c2cccc(NC3CCN(S(=O)(=O)Cc4cccc(NC(=O)CCOCCOCCCc5cccc6c5C(=O)N(C5CCC(=O)NC5=O)C6=O)c4)CC3)c2)c1Cl (stereo not shown) [Example 20, 3-(carboxymethoxy)-4-chloro-5-[3-[[1-[[3-[3-[2-[3-[2-(2,6-dioxo-3-piperidyl)-1,3-dioxo-isoindolin-4-yl]propoxy]ethoxy]propanoylamino]phenyl]methylsulfonyl]-4-piperidyl]amino]phenyl]thiophene-2-carboxylic acid]	0.2 to 1	≥ 1
O=C(O)COc1c(C(=O)O)sc(-c2cccc(NC3CCN(S(=O)(=O)Cc4cccc(NC(=O)CCCCCNC(=O)CNc5cccc6c5CN(C5CCC(=O)NC5=O)C6=O)c4)CC3)c2)c1Cl (stereo not shown) [Example 21, 3-(carboxymethoxy)-4-chloro-5-(3-((1-((3-(6-(2-((2-(2,6-dioxopiperidin-3-yl)-1-oxoisoindolin-4-yl)amino)acetamido)hexanamido)benzyl)sulfonyl)piperidin-4-yl)amino)phenyl)thiophene-2-carboxylic acid]	0.2 to 1	≥ 1
O=C(O)COc1c(C(=O)O)sc(-c2cccc(NC3CCN(S(=O)(=O)Cc4cccc(NC(=O)CCCCNC(=O)CNc5cccc6c5CN(C5CCC(=O)NC5=O)C6=O)c4)CC3)c2)c1Cl (stereo not shown) [Example 22, 3-(carboxymethoxy)-4-chloro-5-(3-((1-((3-(5-(2-((2-(2,6-dioxopiperidin-3-yl)-1-oxoisoindolin-4-yl)amino)acetamido)pentanamido)benzyl)sulfonyl)piperidin-4-yl)amino)phenyl)thiophene-2-carboxylic acid]	0.2 to 1	≥ 1
O=C(O)COc1c(C(=O)O)sc(-c2cccc(NC3CCN(S(=O)(=O)Cc4cccc(NC(=O)CNc5ccc6c(c5)C(=O)N(C5CCC(=O)NC5=O)C6=O)c4)CC3)c2)c1Cl (stereo not shown) [Example 23, 3-(carboxymethoxy)-4-chloro-5-[3-[[1-[[3-[[2-[[2-(2,6-dioxo-3-piperidyl)-1,3-dioxo-isoindolin-5-yl]amino]acetyl]amino]phenyl]methylsulfonyl]-4-piperidyl]amino]phenyl]thiophene-2-carboxylic acid]	0.2 to 1	0.2 to 1
O=C(O)COc1c(C(=O)O)sc(-c2cccc(NC3CCN(S(=O)(=O)Cc4cccc(NC(=O)CCOCCNC(=O)CNc5ccc6c(c5)C(=O)N(C5CCC(=O)NC5=O)C6=O)c4)CC3)c2)c1Cl (stereo not shown) [Example 24, 3-(carboxymethoxy)-4-chloro-5-[3-[[1-[[3-[3-[2-[[2-[[2-(2,6-dioxo-3-piperidyl)-1,3-dioxo-isoindolin-5-yl]amino]acetyl]amino]ethoxy]propanoylamino]phenyl]methylsulfonyl]-4-piperidyl]amino]phenyl]thiophene-2-carboxylic acid]	0.2 to 1	≥ 1
O=C(O)COc1c(C(=O)O)sc(-c2cccc(NC3CCN(S(=O)(=O)Cc4cccc(NC(=O)CCCCCCNC(=O)CNc5ccc6c(c5)CN(C5CCC(=O)NC5=O)C6=O)c4)CC3)c2)c1Cl (stereo not shown) [Example 25, 3-(carboxymethoxy)-4-chloro-5-[3-[[1-[[3-[7-[[2-[[2-(2,6-dioxo-3-piperidyl)-1-oxo-isoindolin-5-yl]amino]acetyl]amino]heptanoylamino]phenyl]methylsulfonyl]-4-piperidyl]amino]phenyl]thiophene-2-carboxylic acid]	0.2 to 1	0.2 to 1
CC(Nc1cccc2c1CN(C1CCC(=O)NC1=O)C2=O)C(=O)NCCCCCCC(=O)Nc1cccc(CS(=O)(=O)N2CCC(Nc3cccc(-c4sc(C(=O)O)c(OCC(=O)O)c4Cl)c3)CC2)c1 (stereo not shown) [Example 26, 3-(carboxymethoxy)-4-chloro-5-[3-[[1-[[3-[7-[2-[[2-(2,6-dioxo-3-piperidyl)-1-oxo-isoindolin-4-yl]amino]propanoylamino]heptanoylamino]phenyl]methylsulfonyl]-4-piperidyl]amino]phenyl]thiophene-2-carboxylic acid]	0.2 to 1	≥ 1
O=C(O)COc1c(C(=O)O)sc(-c2cccc(NC3CCN(S(=O)(=O)Cc4cccc(NC(=O)CCOCCCc5cccc6c5C(=O)N(C5CCC(=O)NC5=O)C6=O)c4)CC3)c2)c1Cl (stereo not shown) [Example 27, 3-(carboxymethoxy)-4-chloro-5-[3-[[1-[[3-[3-[3-[2-(2,6-dioxo-3-piperidyl)-1,3-dioxo-isoindolin-4-yl]propoxy]propanoylamino]phenyl]methylsulfonyl]-4-piperidyl]amino]phenyl]thiophene-2-carboxylic acid]	0.2 to 1	≥ 1
CC1(C)C[C@@H](Nc2cccc(-c3sc(C(=O)O)c(OCC(=O)O)c3Cl)c2)CCN1S(=O)(=O)Cc1cccc(NC(=O)CCCNC(=O)CNc2cccc3c2CN(C2CCC(=O)NC2=O)C3=O)c1 (stereo partly drawn) [Example 28, 3-(carboxymethoxy)-4-chloro-5-(3-(((4S)-1-((3-(4-(2-((2-(2,6-dioxopiperidin-3-yl)-1-oxoisoindolin-4-yl)amino)acetamido)butanamido)benzyl)sulfonyl)-2,2-dimethylpiperidin-4-yl)amino)phenyl)thiophene-2-carboxylic acid]	0.2 to 1	≥ 1
